# Measurements taken from publication PMC10924921, “Mi-2β promotes immune evasion in melanoma by activating EZH2 methylation” (Nature Communications, 2024).
# Experiments:
# Assay in all cases: biochemical
# Set-up in all cases: KINOMEscan active-site competition binding panel (468 kinase assays), per cent of control at 1000 nM
# Conditions in all cases: KINOMEscan per cent of control (binding competition); read-out: Percent Control
# [1] = biological target: T1, PKAC-beta (Homo sapiens, UniProt P22694)
# T1 construct: gene PRKACB
# Description: (§1) Figure S7 / Percent Control
# [2] = biological target: T2, MLCK (Homo sapiens, UniProt Q32MK0)
# T2 construct: gene MYLK3
# Description: as §1
# [3] = biological target: HASPIN (Homo sapiens, UniProt Q8TF76)
# Chain of HASPIN (Q8TF76 whole entry): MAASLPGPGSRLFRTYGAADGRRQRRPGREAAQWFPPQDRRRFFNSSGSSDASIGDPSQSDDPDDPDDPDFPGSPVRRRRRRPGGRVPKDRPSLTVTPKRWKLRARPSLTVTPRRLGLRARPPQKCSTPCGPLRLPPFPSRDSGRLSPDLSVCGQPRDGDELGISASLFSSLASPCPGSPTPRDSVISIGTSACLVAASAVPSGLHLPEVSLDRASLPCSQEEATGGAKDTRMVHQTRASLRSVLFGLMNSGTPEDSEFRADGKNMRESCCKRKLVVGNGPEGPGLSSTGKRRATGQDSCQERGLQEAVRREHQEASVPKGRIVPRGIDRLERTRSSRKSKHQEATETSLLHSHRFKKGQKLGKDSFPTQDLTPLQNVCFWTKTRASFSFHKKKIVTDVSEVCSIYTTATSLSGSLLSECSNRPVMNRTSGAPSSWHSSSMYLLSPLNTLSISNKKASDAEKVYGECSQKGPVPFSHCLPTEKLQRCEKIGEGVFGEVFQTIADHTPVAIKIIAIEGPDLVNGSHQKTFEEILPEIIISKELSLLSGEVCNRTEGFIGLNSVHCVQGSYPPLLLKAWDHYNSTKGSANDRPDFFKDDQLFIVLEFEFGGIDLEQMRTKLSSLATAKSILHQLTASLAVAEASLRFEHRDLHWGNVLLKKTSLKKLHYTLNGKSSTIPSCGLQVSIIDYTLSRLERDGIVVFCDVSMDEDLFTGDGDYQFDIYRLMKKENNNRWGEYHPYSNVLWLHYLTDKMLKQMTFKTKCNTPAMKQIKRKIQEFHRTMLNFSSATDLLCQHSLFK
# Description: as §1
# [4] = biological target: T3, ZAK (Homo sapiens, UniProt Q9NYL2)
# T3 construct: gene MAP3K20
# Description: as §1
# [5] = biological target: CDK2 (Homo sapiens, UniProt P24941)
# Description: as §1
# [6] = biological target: CLK3 (Homo sapiens, UniProt P49761)
# Description: as §1
# [7] = biological target: T4, PYK2 (Homo sapiens, UniProt Q14289)
# T4 construct: gene PTK2B
# T4 sequence (Q14289 whole entry): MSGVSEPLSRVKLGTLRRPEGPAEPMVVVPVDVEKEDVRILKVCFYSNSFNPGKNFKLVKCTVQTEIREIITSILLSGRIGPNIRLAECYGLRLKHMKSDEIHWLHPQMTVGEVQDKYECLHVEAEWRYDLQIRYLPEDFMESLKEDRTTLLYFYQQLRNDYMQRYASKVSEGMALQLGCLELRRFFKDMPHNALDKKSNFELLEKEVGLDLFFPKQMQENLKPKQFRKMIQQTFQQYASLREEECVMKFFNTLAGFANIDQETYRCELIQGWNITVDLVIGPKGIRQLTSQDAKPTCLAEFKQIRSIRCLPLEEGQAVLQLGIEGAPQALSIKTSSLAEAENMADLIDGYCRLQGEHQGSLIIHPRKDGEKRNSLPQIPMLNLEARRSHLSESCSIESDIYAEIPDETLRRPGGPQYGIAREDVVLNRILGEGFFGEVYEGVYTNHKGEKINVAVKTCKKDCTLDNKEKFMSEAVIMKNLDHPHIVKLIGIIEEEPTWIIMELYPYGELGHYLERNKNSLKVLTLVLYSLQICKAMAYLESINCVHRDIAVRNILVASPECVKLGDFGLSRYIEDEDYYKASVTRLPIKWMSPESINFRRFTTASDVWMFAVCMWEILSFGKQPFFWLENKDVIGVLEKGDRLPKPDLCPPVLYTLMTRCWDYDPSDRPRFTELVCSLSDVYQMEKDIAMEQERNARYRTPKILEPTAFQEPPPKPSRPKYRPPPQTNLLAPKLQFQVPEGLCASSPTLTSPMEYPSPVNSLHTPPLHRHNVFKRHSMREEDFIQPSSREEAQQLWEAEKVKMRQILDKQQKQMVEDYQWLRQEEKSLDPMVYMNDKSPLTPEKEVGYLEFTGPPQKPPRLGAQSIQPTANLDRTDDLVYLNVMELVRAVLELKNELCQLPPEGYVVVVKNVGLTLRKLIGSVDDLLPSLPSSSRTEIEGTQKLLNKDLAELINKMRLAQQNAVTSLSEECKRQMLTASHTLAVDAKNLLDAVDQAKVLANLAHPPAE
# Description: as §1
# [8] = biological target: NEK9 (Homo sapiens, UniProt Q8TD19)
# Description: as §1
# [9] = biological target: BMX (Homo sapiens, UniProt P51813)
# Description: as §1
# [10] = biological target: SNRK (Homo sapiens, UniProt Q9NRH2)
# Description: as §1
# [11] = biological target: FLT3(K663Q) (Homo sapiens, UniProt P36888, K663Q)
# Description: as §1
# [12] = biological target: T5, CTK (Homo sapiens, UniProt P42679)
# T5 construct: gene MATK
# Description: as §1
# [13] = biological target: T6, RPS6KA4(Kin.Dom.1-N-terminal) (Homo sapiens, UniProt O75676)
# T6 construct: Kin.Dom.1-N-terminal
# Description: as §1
# [14] = biological target: T7, NIK (Homo sapiens, UniProt Q99558)
# T7 construct: gene MAP3K14
# Description: as §1
# [15] = biological target: MARK4 (Homo sapiens, UniProt Q96L34)
# Chain of MARK4 (Q96L34 whole entry): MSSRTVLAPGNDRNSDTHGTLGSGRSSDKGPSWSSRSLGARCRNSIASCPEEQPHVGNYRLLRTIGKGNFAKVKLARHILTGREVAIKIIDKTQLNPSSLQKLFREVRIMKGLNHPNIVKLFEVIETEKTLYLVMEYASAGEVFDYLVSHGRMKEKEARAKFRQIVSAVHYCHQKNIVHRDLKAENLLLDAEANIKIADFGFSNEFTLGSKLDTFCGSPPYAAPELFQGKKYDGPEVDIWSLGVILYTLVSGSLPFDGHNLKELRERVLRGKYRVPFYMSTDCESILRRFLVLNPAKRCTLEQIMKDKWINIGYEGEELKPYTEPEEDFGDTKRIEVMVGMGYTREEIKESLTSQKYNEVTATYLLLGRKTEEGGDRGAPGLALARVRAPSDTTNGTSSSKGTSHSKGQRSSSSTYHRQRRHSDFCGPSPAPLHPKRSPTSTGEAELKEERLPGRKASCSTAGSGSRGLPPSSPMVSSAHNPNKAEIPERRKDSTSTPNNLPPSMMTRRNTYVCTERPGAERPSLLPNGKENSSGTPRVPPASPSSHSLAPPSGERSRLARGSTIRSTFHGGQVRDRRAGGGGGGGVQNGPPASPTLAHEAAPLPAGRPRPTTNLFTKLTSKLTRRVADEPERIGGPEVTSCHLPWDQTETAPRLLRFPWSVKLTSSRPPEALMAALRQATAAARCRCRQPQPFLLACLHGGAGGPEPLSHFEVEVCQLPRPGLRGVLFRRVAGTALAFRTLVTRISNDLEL
# Description: as §1
# [16] = biological target: CAMK2B (Homo sapiens, UniProt Q13554)
# Description: as §1
# [17] = biological target: SRPK1 (Homo sapiens, UniProt Q96SB4)
# Chain of SRPK1 (Q96SB4 whole entry): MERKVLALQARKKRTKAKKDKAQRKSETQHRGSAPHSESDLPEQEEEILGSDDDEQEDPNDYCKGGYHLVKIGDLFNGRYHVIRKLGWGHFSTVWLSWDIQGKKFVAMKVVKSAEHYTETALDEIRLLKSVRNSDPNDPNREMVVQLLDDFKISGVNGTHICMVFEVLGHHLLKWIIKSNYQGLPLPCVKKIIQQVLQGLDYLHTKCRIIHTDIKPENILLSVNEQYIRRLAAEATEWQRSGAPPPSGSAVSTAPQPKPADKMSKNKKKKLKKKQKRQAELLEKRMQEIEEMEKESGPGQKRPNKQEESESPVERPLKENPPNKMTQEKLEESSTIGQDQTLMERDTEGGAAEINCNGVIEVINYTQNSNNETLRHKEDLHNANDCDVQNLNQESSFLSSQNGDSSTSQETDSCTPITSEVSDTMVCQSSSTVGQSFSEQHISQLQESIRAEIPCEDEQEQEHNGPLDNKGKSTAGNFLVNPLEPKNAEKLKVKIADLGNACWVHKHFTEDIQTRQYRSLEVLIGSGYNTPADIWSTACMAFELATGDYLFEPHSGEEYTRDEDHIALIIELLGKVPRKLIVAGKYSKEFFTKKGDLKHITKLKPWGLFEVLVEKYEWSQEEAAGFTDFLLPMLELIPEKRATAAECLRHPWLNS
# Description: as §1
# [18] = biological target: WNK4 (Homo sapiens, UniProt Q96J92)
# Description: as §1
# [19] = biological target: RET(M918T) (Homo sapiens, UniProt P07949, M918T)
# Description: as §1
# [20] = biological target: BLK (Homo sapiens, UniProt P51451)
# Description: as §1
# [21] = biological target: EPHA5 (Homo sapiens, UniProt P54756)
# Chain of EPHA5 (P54756 whole entry): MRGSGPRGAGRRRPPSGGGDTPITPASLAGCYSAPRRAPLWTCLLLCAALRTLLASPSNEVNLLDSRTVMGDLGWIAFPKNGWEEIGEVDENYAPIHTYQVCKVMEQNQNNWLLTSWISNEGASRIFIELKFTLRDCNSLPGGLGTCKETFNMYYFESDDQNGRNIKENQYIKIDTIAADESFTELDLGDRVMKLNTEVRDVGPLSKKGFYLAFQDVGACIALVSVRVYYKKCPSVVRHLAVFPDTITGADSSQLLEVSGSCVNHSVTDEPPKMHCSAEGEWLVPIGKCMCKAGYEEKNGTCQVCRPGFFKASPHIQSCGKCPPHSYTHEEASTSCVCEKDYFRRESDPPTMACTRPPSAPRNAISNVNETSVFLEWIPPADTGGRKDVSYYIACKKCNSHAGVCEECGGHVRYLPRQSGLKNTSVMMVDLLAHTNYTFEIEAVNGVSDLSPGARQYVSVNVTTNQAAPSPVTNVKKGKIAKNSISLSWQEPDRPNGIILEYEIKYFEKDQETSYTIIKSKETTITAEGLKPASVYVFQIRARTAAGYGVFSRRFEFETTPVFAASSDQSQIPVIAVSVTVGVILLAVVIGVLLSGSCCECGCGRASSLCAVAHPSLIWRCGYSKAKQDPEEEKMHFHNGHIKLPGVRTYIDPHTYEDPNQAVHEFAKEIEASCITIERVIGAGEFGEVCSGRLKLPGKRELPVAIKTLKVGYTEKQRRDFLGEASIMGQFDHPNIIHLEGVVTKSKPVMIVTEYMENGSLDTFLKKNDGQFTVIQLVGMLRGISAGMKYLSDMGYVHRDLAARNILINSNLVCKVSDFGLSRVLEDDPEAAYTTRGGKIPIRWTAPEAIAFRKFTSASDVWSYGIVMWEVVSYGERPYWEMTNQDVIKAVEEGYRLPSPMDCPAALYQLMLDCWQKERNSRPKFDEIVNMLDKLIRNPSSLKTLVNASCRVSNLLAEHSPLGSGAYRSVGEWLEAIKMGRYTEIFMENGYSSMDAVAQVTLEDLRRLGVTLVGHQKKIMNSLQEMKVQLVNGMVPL
# Description: as §1
# [22] = biological target: PKMYT1 (Homo sapiens, UniProt Q99640)
# Chain of PKMYT1 (Q99640 whole entry): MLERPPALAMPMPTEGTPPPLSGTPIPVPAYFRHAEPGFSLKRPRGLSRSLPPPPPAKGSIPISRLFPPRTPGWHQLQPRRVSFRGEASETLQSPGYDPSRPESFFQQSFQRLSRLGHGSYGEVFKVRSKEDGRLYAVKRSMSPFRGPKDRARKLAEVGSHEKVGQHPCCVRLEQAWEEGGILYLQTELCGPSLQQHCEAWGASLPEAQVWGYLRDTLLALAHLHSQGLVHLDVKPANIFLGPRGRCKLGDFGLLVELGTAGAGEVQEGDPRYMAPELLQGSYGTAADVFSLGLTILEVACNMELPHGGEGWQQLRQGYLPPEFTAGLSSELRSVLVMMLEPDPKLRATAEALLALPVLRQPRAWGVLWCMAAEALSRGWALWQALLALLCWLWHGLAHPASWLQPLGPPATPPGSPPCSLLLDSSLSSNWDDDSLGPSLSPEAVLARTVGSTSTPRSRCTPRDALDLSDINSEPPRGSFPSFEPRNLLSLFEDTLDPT
# Description: as §1
# [23] = biological target: PKN1 (Homo sapiens, UniProt Q16512)
# Description: as §1
# [24] = biological target: T8, p38-beta (Homo sapiens, UniProt Q15759)
# T8 construct: gene MAPK11
# Description: as §1
# [25] = biological target: T9, ERK1 (Homo sapiens, UniProt P27361)
# T9 construct: gene MAPK3
# Description: as §1
compound,measurement,setting,value
Cn1c(=O)[nH]c2ccc(-c3cccc(C(=O)NC4CCn5ccnc5C4)c3)cc21 (stereo not shown) [Z36-MP5],remaining binding at 1 µM,[1],96%
same,remaining binding at 1 µM,[2],91%
same,remaining binding at 1 µM,[3],71%
same,remaining binding at 1 µM,[4],95%
same,remaining binding at 1 µM,[5],91%
same,remaining binding at 1 µM,[6],91%
same,remaining binding at 1 µM,[7],93%
same,remaining binding at 1 µM,[8],83%
same,remaining binding at 1 µM,[9],100%
same,remaining binding at 1 µM,[10],78%
same,remaining binding at 1 µM,[11],98%
same,remaining binding at 1 µM,[12],61%
same,remaining binding at 1 µM,[13],90%
same,remaining binding at 1 µM,[14],46%
same,remaining binding at 1 µM,[15],95%
same,remaining binding at 1 µM,[16],91%
same,remaining binding at 1 µM,[17],55%
same,remaining binding at 1 µM,[18],81%
same,remaining binding at 1 µM,[19],90%
same,remaining binding at 1 µM,[20],100%
same,remaining binding at 1 µM,[21],86%
same,remaining binding at 1 µM,[22],93%
same,remaining binding at 1 µM,[23],99%
same,remaining binding at 1 µM,[24],87%
same,remaining binding at 1 µM,[25],98%
